Experimental data from US20110003711A1 (CHROMOCELL CORPORATION, priority 2008, published 2011).
Structures can show the parent of a compound that is named as a salt. Where two headings read alike, the source gives them in different places.

What was measured:
[1] = biological target: T1, GABAA receptor α5β3γ2s (α5) (Homo sapiens, UniProt P18507+P28472+P31644); test: Membrane potential assay, CHO cell line expressing GABAA α5β3γ2s; type: cell-based
T1 construct: Human GABAA receptor alpha 5 subunit amino acid; Human GABAA receptor beta 3 variant 1 subunit amino acid; Human GABAA receptor gamma 2 variant 1 (short) subunit amino acid; expressed in transfected cells
T1 sequence (P31644 32-462): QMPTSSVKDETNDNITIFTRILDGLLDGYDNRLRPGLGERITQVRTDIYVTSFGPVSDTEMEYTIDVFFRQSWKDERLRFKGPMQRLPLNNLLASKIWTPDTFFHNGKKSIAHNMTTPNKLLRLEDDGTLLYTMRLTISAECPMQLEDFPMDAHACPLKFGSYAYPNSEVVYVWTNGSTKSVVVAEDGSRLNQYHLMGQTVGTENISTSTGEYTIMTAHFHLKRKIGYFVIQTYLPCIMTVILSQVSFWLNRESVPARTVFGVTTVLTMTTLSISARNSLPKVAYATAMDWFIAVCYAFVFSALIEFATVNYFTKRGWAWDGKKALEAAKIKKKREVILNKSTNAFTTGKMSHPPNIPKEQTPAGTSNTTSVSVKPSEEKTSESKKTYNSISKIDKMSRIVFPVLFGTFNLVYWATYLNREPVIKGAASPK
T1 sequence (P28472 26-473): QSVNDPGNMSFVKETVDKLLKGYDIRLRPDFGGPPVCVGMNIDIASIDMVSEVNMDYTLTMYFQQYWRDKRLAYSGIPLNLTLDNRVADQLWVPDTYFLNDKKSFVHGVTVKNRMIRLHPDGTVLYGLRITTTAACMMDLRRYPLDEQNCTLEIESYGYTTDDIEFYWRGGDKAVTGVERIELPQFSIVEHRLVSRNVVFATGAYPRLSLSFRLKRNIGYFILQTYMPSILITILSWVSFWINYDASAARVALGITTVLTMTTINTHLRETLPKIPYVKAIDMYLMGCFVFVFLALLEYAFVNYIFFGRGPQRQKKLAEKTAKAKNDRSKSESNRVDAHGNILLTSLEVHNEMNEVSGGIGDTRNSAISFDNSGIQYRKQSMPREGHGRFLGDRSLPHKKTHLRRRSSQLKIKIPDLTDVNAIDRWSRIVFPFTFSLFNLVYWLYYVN
T1 sequence (P18507 40-467 isoform P18507-1 limits assumed): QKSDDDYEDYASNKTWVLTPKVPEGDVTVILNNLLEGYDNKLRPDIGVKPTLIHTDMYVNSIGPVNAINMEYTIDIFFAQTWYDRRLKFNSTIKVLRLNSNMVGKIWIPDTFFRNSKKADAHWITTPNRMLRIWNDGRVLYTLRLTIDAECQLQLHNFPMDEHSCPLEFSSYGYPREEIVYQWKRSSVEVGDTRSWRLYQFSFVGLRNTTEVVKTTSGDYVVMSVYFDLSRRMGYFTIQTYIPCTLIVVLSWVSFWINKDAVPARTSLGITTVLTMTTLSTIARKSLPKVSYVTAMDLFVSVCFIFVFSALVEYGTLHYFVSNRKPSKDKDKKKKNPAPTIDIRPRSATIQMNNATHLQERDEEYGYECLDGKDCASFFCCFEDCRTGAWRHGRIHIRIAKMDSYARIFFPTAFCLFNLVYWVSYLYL
Method: (§1) As will be appreciated by those of skill in the art, any reagent that is suitable for use with a chosen host cell may be used to introduce a nucleic acid, e.g. plasmid, oligonucleotide, labeled oligonucleotide, into a host cell with proper optimization. Examples of reagents that may be used to introduce nucleic acids into host cells include but are not limited to Lipofectamine, Lipofectamine 2000, Oligofectamine, TFX reagents, Fugene 6, DOTAP/DOPE, Metafectine, or Fecturin.
(§2) Cells were plated 24 hours prior to assay at 10-25,000 cells per well in 384 well plates in growth media (Ham's F-12 media plus FBS and glutamine). […] Incubation was for 1 hour, followed by plate loading onto the high throughput fluorescent plate reader (Hamamastu FDSS). […] The plates were read for 90 seconds.
(§3) Interaction of cell lines with test compounds was evaluated by measuring the membrane potential of GABAA, in response to test compounds using the following protocol.

[2] = biological target: T2, GABAA receptor α2β3γ2s (α2) (Homo sapiens, UniProt P18507+P28472+P47869, A343T); test: Membrane potential assay, CHO cell line expressing GABAA α2β3γ2s; type: cell-based; conditions: membrane potential assay, CHO α2β3γ2s cell line
T2 construct: Human GABAA receptor alpha 2 subunit amino acid; Human GABAA receptor beta 3 variant 1 subunit amino acid; Human GABAA receptor gamma 2 variant 1 (short) subunit amino acid; expressed in transfected cells
T2 sequence (P47869 29-451 A343T): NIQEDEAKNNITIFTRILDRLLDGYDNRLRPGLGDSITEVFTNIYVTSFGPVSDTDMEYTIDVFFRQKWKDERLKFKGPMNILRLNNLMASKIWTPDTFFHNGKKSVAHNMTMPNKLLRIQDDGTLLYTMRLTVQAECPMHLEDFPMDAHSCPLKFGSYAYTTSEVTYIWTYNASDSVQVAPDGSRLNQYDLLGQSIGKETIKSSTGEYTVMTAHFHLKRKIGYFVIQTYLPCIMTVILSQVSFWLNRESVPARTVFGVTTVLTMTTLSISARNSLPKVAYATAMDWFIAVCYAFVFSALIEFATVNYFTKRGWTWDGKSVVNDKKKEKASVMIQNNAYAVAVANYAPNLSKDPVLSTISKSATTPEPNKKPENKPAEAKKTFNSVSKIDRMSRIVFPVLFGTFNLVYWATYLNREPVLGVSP
T2 sequence (P28472 26-473, stated change not applied): as the sequence (P28472 26-473) above
T2 sequence (P18507 40-467 isoform P18507-1, stated change not applied): as the sequence (P18507 40-467 isoform P18507-1 limits assumed) above
Method: as §1, §2, §3

[3] = biological target: T3, GABAA receptor α3β3γ2s (α3) (Homo sapiens, UniProt P18507+P28472+P34903); test: Membrane potential assay, CHO cell line expressing GABAA α3β3γ2s; type: cell-based
T3 construct: Human GABAA receptor alpha 3 subunit amino acid; Human GABAA receptor beta 3 variant 1 subunit amino acid; Human GABAA receptor gamma 2 variant 1 (short) subunit amino acid; expressed in transfected cells
T3 sequence (P34903 29-492): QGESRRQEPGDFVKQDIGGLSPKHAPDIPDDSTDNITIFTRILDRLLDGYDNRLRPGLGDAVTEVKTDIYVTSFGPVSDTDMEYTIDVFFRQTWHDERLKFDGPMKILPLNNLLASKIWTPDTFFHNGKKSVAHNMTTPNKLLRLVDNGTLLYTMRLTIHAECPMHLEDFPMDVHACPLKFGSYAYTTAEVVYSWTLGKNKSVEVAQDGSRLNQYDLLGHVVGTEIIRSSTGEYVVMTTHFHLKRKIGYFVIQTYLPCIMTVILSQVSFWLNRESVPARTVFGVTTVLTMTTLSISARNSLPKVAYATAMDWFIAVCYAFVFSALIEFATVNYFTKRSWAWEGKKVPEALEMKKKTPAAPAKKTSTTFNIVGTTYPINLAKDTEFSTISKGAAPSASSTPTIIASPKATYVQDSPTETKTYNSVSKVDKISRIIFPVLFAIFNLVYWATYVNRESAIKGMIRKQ
T3 sequence (P28472 26-473): as the sequence (P28472 26-473) above
T3 sequence (P18507 40-467 isoform P18507-1 limits assumed): as the sequence (P18507 40-467 isoform P18507-1 limits assumed) above
Method: as §1, §2, §3

[4] = biological target: T4, GABAA receptor α2β3γ2s (α2) (Homo sapiens, UniProt P18507+P28472+P47869); test: Membrane potential assay, CHO cell line expressing GABAA α2β3γ2s; type: cell-based
T4 construct: Human GABAA receptor alpha 2 subunit amino acid; Human GABAA receptor beta 3 variant 1 subunit amino acid; Human GABAA receptor gamma 2 variant 1 (short) subunit amino acid; expressed in transfected cells
T4 sequence (P47869 29-451 A343T): as the sequence (P47869 29-451 A343T) above
T4 sequence (P28472 26-473, change not shown): as the sequence (P28472 26-473) above
T4 sequence (P18507 40-467 isoform P18507-1, change not shown): as the sequence (P18507 40-467 isoform P18507-1 limits assumed) above
Method: as §1, §2, §3

[5] = biological target: T5, GABAA receptor α1β3γ2s (α1) (Homo sapiens, UniProt P14867+P18507+P28472); test: Membrane potential assay, CHO cell line expressing GABAA α1β3γ2s; type: cell-based
T5 construct: Human GABAA receptor alpha 1 subunit amino acid; Human GABAA receptor beta 3 variant 1 subunit amino acid; Human GABAA receptor gamma 2 variant 1 (short) subunit amino acid; expressed in transfected cells
T5 sequence (P14867 28-456): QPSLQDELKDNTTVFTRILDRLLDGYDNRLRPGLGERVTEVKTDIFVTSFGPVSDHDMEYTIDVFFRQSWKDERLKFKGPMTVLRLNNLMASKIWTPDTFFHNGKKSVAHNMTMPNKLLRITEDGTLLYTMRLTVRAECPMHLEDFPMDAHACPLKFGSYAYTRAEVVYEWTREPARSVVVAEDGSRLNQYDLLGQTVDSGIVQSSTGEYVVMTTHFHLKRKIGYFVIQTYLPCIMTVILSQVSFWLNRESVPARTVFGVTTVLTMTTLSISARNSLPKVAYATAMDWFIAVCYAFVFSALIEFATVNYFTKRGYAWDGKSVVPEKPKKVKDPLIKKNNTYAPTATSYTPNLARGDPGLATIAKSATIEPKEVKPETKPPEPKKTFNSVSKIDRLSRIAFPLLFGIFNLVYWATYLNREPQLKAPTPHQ
T5 sequence (P28472 26-473): as the sequence (P28472 26-473) above
T5 sequence (P18507 40-467 isoform P18507-1 limits assumed): as the sequence (P18507 40-467 isoform P18507-1 limits assumed) above
Method: as §1, §2, §3

[6] = tested on: GABAA-meYFP-CHO cells (α1β3γ2s, α2β3γ2s, α3β3γ2s, α5β3γ2s); test: In-cell readout assay using halide-sensitive meYFP; type: cell-based, human; conditions: increasing concentrations of GABA ligand
Method: The response of GABAA (subunit combinations of α1β3γ2s (A1), α2β3γ2s (A2), α3β3γ2s (A3) and α5β3γ2s (A5)) expressing CHO cells of the invention to test compounds was evaluated using the following protocol for an in-cell readout assay.
Cells were plated 24 hours prior to assay at 10-25,000 cells per well in 384 well plates in growth media (Ham's F-12 media plus FBS and glutamine). […] The assay plates were then loaded on the FDSS (Hamamatsu Corporation). […] The plates were read for 90 seconds.

[7] = membrane potential assay, CHO α5β3γ2s cell line, read-out: EC50 Values α5
[8] = membrane potential assay, CHO α3β3γ2s cell line, read-out: EC50 Values α3
[9] = membrane potential assay, CHO α1β3γ2s cell line, read-out: EC50 Values α1

Compound	EC50 [1, 7]	EC50 [2]	EC50 [3, 8]	EC50 [1]	EC50 [4]	EC50 [5, 9]	EC50 [5]	EC50 [3]	EC50 Values α5 (result in words) ([1]; membrane potential assay, CHO α5β3γ2s cell line)	Quench of meYFP signal [6]
OCCN(CCO)c1nc(N2CCCCC2)c2nc(N(CCO)CCO)nc(N3CCCCC3)c2n1 [Dipyridamole]	1370 nM	3680 nM	3690 nM	–	–	–	–	–	–	–
CC(=O)[C@H]1CC[C@H]2[C@@H]3CC[C@H]4C[C@H](O)CC[C@]4(C)[C@H]3CC[C@]12C [5-alpha-Pregnan-3alpha-ol-20-one]	–	–	80 nM	33.6 nM	140 nM	692 nM	–	–	–	–
CCCCNc1c(C(=O)OCC)c(C)nc2c1cnn2CC [Tracazolate]	762 nM	8900 nM	4300 nM	–	–	10600 nM	–	–	–	–
C[C@]12CC[C@@H](O)C[C@@H]1CC[C@@H]1[C@@H]2CC[C@]2(C)C(=O)CC[C@@H]12 [Androsterone]	–	–	–	337 nM	1520 nM	–	1480 nM	1120 nM	–	–
CC(C)(C)c1cc(C=C(C#N)C#N)cc(C(C)(C)C)c1O [Tyrphostin A9]	54000 nM	880 nM	5000 nM	–	–	1800 nM	–	–	–	–
CN1C(=O)CCS(=O)(=O)C1c1ccc(Cl)cc1 (stereo not shown) [Chlormezanone]	–	–	–	14.1 nM	5.42 nM	–	1.74 nM	7 nM	–	–
COc1cc(/C=C(\C#N)C(=O)c2ccc(O)c(O)c2)cc(I)c1O [I-OMe Tyrphostin 538]	–	1500 nM	2200 nM	–	–	3500 nM	–	–	α5 Not active	–
O=S(=O)(O)C1CCNCC1 [Piperidine-4-sulphonic acid]	14200 nM	20000 nM	8330 nM	–	–	13000 nM	–	–	–	–
CCOC(=O)c1cnc2c(cnn2CC)c1NN=C(C)C [Etazolate]	281 nM	790 nM	569 nM	–	–	2540 nM	–	–	–	–
NCc1cc(=O)[nH]o1 [Muscimol]	–	–	–	80 nM	675 nM	–	4000 nM	367 nM	–	–
O=C(Nc1ccc([N+](=O)[O-])cc1Cl)c1cc(Cl)ccc1O [Niclosamide]	690 nM	–	550 nM	–	–	–	–	–	–	–
NCCCC(=O)O [GABA, Gamma-aminobutyric acid]	–	–	–	–	–	–	–	–	–	increasing quench of meYFP signal
C[C@]12CC[C@@H](O)C[C@@H]1CC[C@@H]1[C@@H]2CC[C@]2(C)[C@@H](C(=O)CO)CC[C@@H]12 [3-alpha, 21-dihydroxy-5-alpha-pregnan-20-one]	17.3 nM	123 nM	80.2 nM	–	–	382 nM	–	–	–	–
Ivermectin	687 nM	767 nM	798 nM	–	–	4260 nM	–	–	–	–
O=C(O)C1=CCNCC1 [Isoguvacine hydrochloride]	1130 nM	3420 nM	6780 nM	–	–	3570 nM	–	–	–	–
CC(C)c1cccc(C(C)C)c1O [Propofol]	–	–	–	2000 nM	42800 nM	–	33400 nM	12900 nM	–	–
